Legend:
[1] = Elimination of the molecules: cumulative urinary and faecal excretion 0-72 hours; assay type: in vivo, mouse
[2] = tested on: tumour; assay: Dosimetry with regard to the tumour (MIRD programme, extrapolated to ^131I)
[3] = tested on: grafted B16 F0 murine melanoma tumour; assay: Biodistribution of the ^125I-labelled molecules in the melanoma-bearing mouse (autoradiography of whole-body sections); conditions: for Concentration of radioactivity, B 16 (tumour), Mean / Concentration of radioactivity, Ic (intestinal contents), Mean / Concentration of radioactivity, Sc (stomach contents), Mean / Concentration of radioactivity, blood (measured in the heart cavity), Mean / Concentration of radioactivity, brain, Mean / Concentration of radioactivity, kidney, Mean / Concentration of radioactivity, liver, Mean / Concentration of radioactivity, lungs, Mean / Concentration of radioactivity, muscle (skeletal muscle), Mean / Concentration of radioactivity, pancreas, Mean / Concentration of radioactivity, spleen, Mean / Concentration of radioactivity, uvea (pigmented tissues of the eye), Mean: ^125I-labelled compound
Description: The distribution of the radioactivity of the various compounds in the body (tumour and other organs) is quantified using an Ambis 4000 image analyzer on sections of whole animals. […] All the in vivo experimentation is carried out within the context defined by French legislation relating to animal experimentation.
The B16 F0 melanoma cells are provided by the ATCC and cultured in monolayers in culture medium (MEM, Invitrogen) supplemented with 10% foetal calf serum and antibiotics. The cultures are maintained by subculturing after trypsinization. The cells of the first passages are frozen and stored in liquid nitrogen. For the transplanting, the cells in culture at confluence are detached by trypsinization and washed with phosphate buffer (PBS).
The distribution of the radioactivity present in the sections is analyzed using an AMBIS 4000 analyzer (Scanalytics, CSPI, San Diego, Calif.), which is a proportional counter with a multiwire chamber validated and calibrated beforehand for the monitoring of iodine in the mouse. The measurements require acquisition times of 1000 minutes. […] The value of radioactivity per unit of surface area (cpm/mm^2) is converted to concentration (kBq/g) and expressed as percentage of the injected dose/g of tissue (% ID/g).

Structure (SMILES): CCN(CC)CCNC(=O)c1ccc2cc(I)ccc2n1.Cl.Cl [compound 31, N-(2-diethylaminoethyl)-6-iodoquinoline-2-carboxamide dihydrochloride]
- Faecal elimination 0-72 hours (Faeces) ([1]; cumulative excretion 0-72 hours, faeces, mice in metabolic cages): 11.4%
- Urinary and faecal elimination 0-72 hours (Total) ([1]; cumulative excretion 0-72 hours, urine + faeces): 91.2%
- Urinary elimination 0-72 hours (Urine) ([1]; cumulative excretion 0-72 hours, urine, mice in metabolic cages): 80.7%
- elimination route (in words) ([1]; urinary versus faecal, 0-72 hours): predominantly in the urine
- Effective period ([2]; extrapolated to 131I labelling): 31.8 h
- Biological period ([2]; from biodistribution data): 38.0 hours
- Concentration of radioactivity, B 16 (tumour), Mean ([3]; 1 H after i.v. administration): 19.63 % ID/g
- Concentration of radioactivity, Ic (intestinal contents), Mean ([3]; 1 H after i.v. administration): 15.78 % ID/g
- Concentration of radioactivity, Sc (stomach contents), Mean ([3]; 1 H after i.v. administration): 48.03 % ID/g
- Concentration of radioactivity, blood (measured in the heart cavity), Mean ([3]; 1 H after i.v. administration): 7.01 % ID/g
- Concentration of radioactivity, brain, Mean ([3]; 1 H after i.v. administration): 1.96 % ID/g
- Concentration of radioactivity, kidney, Mean ([3]; 1 H after i.v. administration): 11.82 % ID/g
- Concentration of radioactivity, liver, Mean ([3]; 1 H after i.v. administration): 10.92 % ID/g
- Concentration of radioactivity, lungs, Mean ([3]; 1 H after i.v. administration): 9.41 % ID/g
- Concentration of radioactivity, muscle (skeletal muscle), Mean ([3]; 1 H after i.v. administration): 1.79 % ID/g
- Concentration of radioactivity, pancreas, Mean ([3]; 1 H after i.v. administration): 9.80 % ID/g
- Concentration of radioactivity, spleen, Mean ([3]; 1 H after i.v. administration): 11.56 % ID/g
- Concentration of radioactivity, uvea (pigmented tissues of the eye), Mean ([3]; 1 H after i.v. administration): 32.71 % ID/g
- Concentration of radioactivity, B 16 (tumour), Mean ([3]; 3 H after i.v. administration): 25.35 % ID/g
- Concentration of radioactivity, Ic (intestinal contents), Mean ([3]; 3 H after i.v. administration): 20.65 % ID/g
- Concentration of radioactivity, Sc (stomach contents), Mean ([3]; 3 H after i.v. administration): 34.72 % ID/g
- Concentration of radioactivity, blood (measured in the heart cavity), Mean ([3]; 3 H after i.v. administration): 5.57 % ID/g
- Concentration of radioactivity, brain, Mean ([3]; 3 H after i.v. administration): 0.83 % ID/g
- Concentration of radioactivity, kidney, Mean ([3]; 3 H after i.v. administration): 12.59 % ID/g
- Concentration of radioactivity, liver, Mean ([3]; 3 H after i.v. administration): 8.89 % ID/g
- Concentration of radioactivity, lungs, Mean ([3]; 3 H after i.v. administration): 5.58 % ID/g
- Concentration of radioactivity, muscle (skeletal muscle), Mean ([3]; 3 H after i.v. administration): 1.14 % ID/g
- Concentration of radioactivity, pancreas, Mean ([3]; 3 H after i.v. administration): 6.17 % ID/g
- Concentration of radioactivity, spleen, Mean ([3]; 3 H after i.v. administration): 10.63 % ID/g
- Concentration of radioactivity, uvea (pigmented tissues of the eye), Mean ([3]; 3 H after i.v. administration): 33.10 % ID/g
- Concentration of radioactivity, B 16 (tumour), Mean ([3]; 6 H after i.v. administration): 17.21 % ID/g
- Concentration of radioactivity, Ic (intestinal contents), Mean ([3]; 6 H after i.v. administration): 23.36 % ID/g
- Concentration of radioactivity, Sc (stomach contents), Mean ([3]; 6 H after i.v. administration): 65.36 % ID/g
- Concentration of radioactivity, blood (measured in the heart cavity), Mean ([3]; 6 H after i.v. administration): 5.91 % ID/g
- Concentration of radioactivity, brain, Mean ([3]; 6 H after i.v. administration): 0.37 % ID/g
- Concentration of radioactivity, kidney, Mean ([3]; 6 H after i.v. administration): 7.60 % ID/g
- Concentration of radioactivity, liver, Mean ([3]; 6 H after i.v. administration): 7.11 % ID/g
- Concentration of radioactivity, lungs, Mean ([3]; 6 H after i.v. administration): 5.32 % ID/g
- Concentration of radioactivity, muscle (skeletal muscle), Mean ([3]; 6 H after i.v. administration): 0.95 % ID/g
- Concentration of radioactivity, spleen, Mean ([3]; 6 H after i.v. administration): 7.60 % ID/g
- Concentration of radioactivity, uvea (pigmented tissues of the eye), Mean ([3]; 6 H after i.v. administration): 36.62 % ID/g
- Concentration of radioactivity, B 16 (tumour), Mean ([3]; 24 H after i.v. administration): 12.13 % ID/g
- Concentration of radioactivity, Ic (intestinal contents), Mean ([3]; 24 H after i.v. administration): 1.45 % ID/g
- Concentration of radioactivity, Sc (stomach contents), Mean ([3]; 24 H after i.v. administration): 2.33 % ID/g
- Concentration of radioactivity, kidney, Mean ([3]; 24 H after i.v. administration): 0.34 % ID/g
- Concentration of radioactivity, liver, Mean ([3]; 24 H after i.v. administration): 2.25 % ID/g
- Concentration of radioactivity, lungs, Mean ([3]; 24 H after i.v. administration): 0.53 % ID/g
- Concentration of radioactivity, spleen, Mean ([3]; 24 H after i.v. administration): 2.66 % ID/g
- Concentration of radioactivity, uvea (pigmented tissues of the eye), Mean ([3]; 24 H after i.v. administration): 22.27 % ID/g
- Concentration of radioactivity, B 16 (tumour), Mean ([3]; 72 H after i.v. administration): 5.93 % ID/g
- Concentration of radioactivity, liver, Mean ([3]; 72 H after i.v. administration): 1.23 % ID/g
- Concentration of radioactivity, spleen, Mean ([3]; 72 H after i.v. administration): 1.85 % ID/g
- Concentration of radioactivity, uvea (pigmented tissues of the eye), Mean ([3]; 72 H after i.v. administration): 18.30 % ID/g
- tumour concentration, times higher than with BZA ([3]; at 72 hours (FIG. 1B)): 8 times
- tumour concentration, % of the injected dose per gram of tumour ([3]; from the first hour): 19.6 % ID/g
